# Assay results published in patent publication US4657897A, “N^6 -substituted adenosines for treating pain” (Warner-Lambert Company, priority 1985, dated 1987).
# Experiments:
# rat heart = experiment: Coronary blood flow (PCS2A), isolated perfused rat heart; design: species or system rat (male); conditions: read-out: effect on heart rate (HR)
# Description: Male rats (400-600 gms) are pretreated with Na heparin 2000 units and anesthetized with Na pentobarbital (50 mg/kg) administered intraperitoneally. Once anesthetized, the rat heart is rapidly excised, the ascending aorta fitted to the aortic perfusion cannula, and secured with a ligature. The coronary arteries are perfused initially at a rate of about 15 ml/min for two to three minutes, afterwhich they are perfused at constant pressure of 70 mm Hg and temperature of 37° C. The electrocardiogram (ECG) is recorded using two platinum electrodes positioned at the base and apex of the left ventricle. A second heart is excised, cannulated, and perfused by the same method outlined above. Both hearts are tested in parallel. The standard physiological salt solution (PSS) is a modified Krebs-Hanseleit bicarbonate buffer of the following composition in mM concentration: NaCl, 127; NaHCO3, 25; dextrose, 5.5; Na Pyruvate, 2.0; KCl, 4.7; MgSO4, 1.1; KH 2PO4, 1.2; CaCl2.2H2 O, 2.5; CaNa2 EDTA, 0.05.
# A 30-minute stabilization period is observed before starting the test protocol.
# The microprocessor control system is a servo mechanism which permits coronary perfusion pressure (CPP) and drug concentration to be maintained constant independent of changes in coronary flow. The level at which CPP and drug concentration are maintained can be changed by commands communicated through the microprocessor keyboard. Dose-response curves are carried out by perfusing concentrated drug solution (DC) at rates proportional to total coronary flow (CFT). Drug concentrations are increased by proportionate increases in the rate of DC infusion over CFT via the microprocessor keyboard. The proportional flow rates for DC:CFT is about 0.0002:1 at the low end and 0.02:1 at the high end of the dose-response curve. Dose-response curves encompassing at least two log doses are carried out by preparing two DCs with a concentration difference of 1:100. Following the first dose range of two log doses, the DC are switched, proportional pumping rate adjusted, and the dose-responsecurve continued for another two log doses. The standard dose-response curve is carried out in one-half log dose increments starting at a subthreshold dose and ending at a dose which produces near maximal response in activity. Standard reference compounds are tested over the range of 10^-9 to 10^-6 M.
# Measurements are for heart rate (HR) and coronary flow (CF). Units are: HR, beats/minute (bpm) and CF, milliliters/minute (ml/min). HR is calculated from the ECG strip chart recording and CF is calculated by recording analog outputs from pumps 1 and 2. Outputs from pump #1=CFT and the output from pump #2=CF for heart B (CFB). CF for heart A (CFA) is calculated (CFT -CFB =CFA).
# adenosine A1 receptor = target: T1, adenosine A1 receptor (Rattus norvegicus, UniProt P25099); experiment: Adenosine Receptor Binding--A1 Receptor Affinity (RBA1), [3H]-CHA binding, rat whole brain membranes; design: species or system rat (male Long Evans); conditions: 1.0 nM [3H]-CHA, 25° C., 1 h
# T1 construct: Whole brain minus cerebellum and brainstem from male Long Evans rats; from tissue; host or cells: rat whole brain minus cerebellum and brainstem (male Long Evans), membranes
# T1 sequence (P25099 1-326): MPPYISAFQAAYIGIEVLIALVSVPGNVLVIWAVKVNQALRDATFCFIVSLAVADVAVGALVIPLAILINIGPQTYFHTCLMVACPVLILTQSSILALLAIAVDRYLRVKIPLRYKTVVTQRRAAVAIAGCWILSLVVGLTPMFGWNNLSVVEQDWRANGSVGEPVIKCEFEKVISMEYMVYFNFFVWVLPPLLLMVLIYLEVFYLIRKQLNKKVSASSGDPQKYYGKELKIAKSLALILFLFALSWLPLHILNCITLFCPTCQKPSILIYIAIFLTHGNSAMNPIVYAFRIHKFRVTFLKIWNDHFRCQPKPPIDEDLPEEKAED
# Description: Adenosine Receptor Binding--A1 Receptor Affinity (RBA1)
# Whole brain minus cerebellum and brainstem from male Long Evans rats (150-200 g) was homogenized in 30 volumes of ice-cold 0.05M Tris-HCl buffer pH 7.7 using a Brinkman Polytron PT-10, (setting number 6 for 20 seconds) and centrifuged for ten minutes at 20,000×g (Sorvall RC-2), 4° C. The supernatant was discarded, and the pellet was resuspended and centrifuged as before. The pellet was resuspended in 20 ml Tris-HCl buffer containing two International Units/ml of adenosine deaminase (Sigma type III from calf intestinal mucosa), incubated at 37° C. for 30 minutes, then subsequently at 0° C. for ten minutes. The homogenate was again centrifuged, and the final pellet was resuspended in ice-cold 0.05M Tris-HCl buffer pH 7.7 to a concentration of 20 mg/ml original wet tissue weight and used immediately.
# Tissue homogenate (10 mg/ml) was incubated in 0.05M Tris-HCl buffer pH 7.7 containing 1.0 nM [^3 H]-N^6 -cyclohexyladenosine[^3 H]-CHA) with or without test agents in triplicate for one hour at 25° C. Incubation volume was 2 ml. Unbound [^3 H]-CHA was separated by rapid filtration under reduced pressure through Whatman glass fiber (GF/B) filters. The filters were rinsed three times with 5 ml of ice cold 0.05M Tris-HCl buffer pH 7.7. The radio-labeled ligand retained on the filter was measured by liquid scintillation spectrophotometry after shaking the filters for one hour or longer on a mechanical shaker in 10 ml of Beckman Ready-Solv HP scintillation cocktail.
# Nonspecific binding was defined as the binding which occurred in the presence of 1 mM theophylline. The concentration of test agent which inhibited 50% of the specific binding (IC50) was determined by nonlinear computer curve fit. The Scatchard plot was calculated by linear regression of the line obtained by plotting the amount of radioligand bound (pmoles/gram of tissue) [formula] Since the amount of radioligand bound was a small fraction of the total amount added, free radioligand was defined as the concentration (nM) of radioligand added to the incubation mixture. The Hill coefficient was calculated by linear regression of the line obtained by plotting the log of the bound radioligand vs the log of the [formula] The maximal number of binding sites (Bmax) was calculated from the Scatchard plot.
# [1] = Mouse Activity and Screen Test (MAST), screen test failure (ST); format: in vivo, mouse (Swiss-Webster, male); conditions: for Inhibition of screen test failure: percent of mice falling off the screen
# Description: Treatments are administered intraperitoneally one hour prior to testing. […] Compounds are dissolved or suspended in 0.2% Methocel. Control animals are injected with Methocel.
# The compounds are identified in the Examples.
structure (smiles),measurement,setting,value
"OC[C@H]1O[C@@H](n2cnc3c(NCCC(c4ccccc4)c4ccccc4)ncnc32)[C@H](O)[C@@H]1O [Example 2, N^6-(3,3-Diphenylpropyl)adenosine]",activation at 1 µM,rat heart; 1 × 10^-6 Molar,-19%
same,activation at 0.1 µM,rat heart; 1 × 10^-7 Molar,-5%
same,activation at 0.01 µM,rat heart; 1 × 10^-8 Molar,-2%
same,activation at 3 µM,rat heart; 3 × 10^-6 Molar,-34%
same,IC50,adenosine A1 receptor,139 nM
same,Inhibition of screen test failure,[1]; 10 mg/kg intraperitoneal,0%
same,Inhibition of screen test failure,[1]; 30 mg/kg intraperitoneal,0%
same,Inhibition of screen test failure,[1]; 100 mg/kg intraperitoneal,0%
same,minimal effective dose,"[1]; Mus musculus, ip, lowest dose at which an A rating is achieved, screen test, intraperitoneal, 1 h prior to testing, read-out: MAST ST LAD",> 100 mg/kg
